Test results taken from the supplement of paper PMC9663587.

Legend:
[1] = compound: CN(C)C/C=C/C(=O)Nc1ccc(C(=O)N2CCC[C@@H](Nc3ncc(Cl)c(-c4c[nH]c5ccccc45)n3)C2)cc1 [THZ531]; experiment: GR value, 72 h; higher = faster growth (1 = untreated, <0 = killing);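 also: breast cancer and non-malignant breast epithelial lines, nine half-log doses, viable cells counted by Hoechst and LIVE/DEAD dye imaging versus time-zero plates and DMSO controls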
[2] = compound: CCN1CCN(Cc2ccc(Nc3ncc(F)c(-c4cc(F)c5nc(C)n(C(C)C)c5c4)n3)nc2)CC1; experiment: as above
[3] = compound: C=CC(=O)Nc1ccc(C(=O)Nc2[nH]nc3c2CN(C(=O)N[C@H](CN(C)C)c2ccccc2)C3(C)C)cc1 [YKL-5-124]; experiment: as above
[4] = compound: CN(C)C(=O)c1cc2cnc(Nc3ccc(N4CCNCC4)cn3)nc2n1C1CCCC1 [LEE011/Ribociclib]; experiment: as above
[5] = compound: CCc1cnn2c(NCc3ccc[n+]([O-])c3)cc(N3CCCC[C@H]3CCO)nc12; experiment: as above
[6] = compound: T1, CC(=O)c1c(C)c2cnc(Nc3ccc(N4CCN(CCOCCOCCOCCNC(=O)COc5cccc6c5C(=O)N(C5CCC(=O)NC5=O)C6=O)CC4)cn3)nc2n(C2CCCC2)c1=O [BSJ-03-123]; experiment: as above
[7] = compound: T2, CN1CC[C@H](c2c(O)cc(O)c3c(=O)cc(-c4ccccc4Cl)oc23)[C@H](O)C1 [Flavopiridol]; experiment: as above
[8] = compound: CN(C)C/C=C/C(=O)Nc1ccc(C(=O)Nc2cccc(Nc3ncc(Cl)c(-c4c[nH]c5ccccc45)n3)c2)cc1 [THZ1]; experiment: as above
[9] = compound: CCOc1cc2ncc(C#N)c(Nc3ccc(OCc4ccccn4)c(Cl)c3)c2cc1NC(=O)/C=C/CN(C)C [Neratinib/HKI272]
[10] = compound: CC(C)Nc1cc(-c2c[nH]c(C(=O)N[C@H](CO)c3cccc(Cl)c3)c2)c(Cl)cn1 [BVD523]
[11] = compound: CCC1=CN=CN=C1N2CCN(CC2)CC3=NC4=C(N3)C=C(C=C4)C(F)(F)F
[12] = compound: CC(=O)O[C@H]1C(=O)[C@@]2(C)[C@H]([C@H](OC(=O)c3ccccc3)[C@]3(O)C[C@H](OC(=O)[C@H](O)[C@@H](NC(=O)c4ccccc4)c4ccccc4)C(C)=C1C3(C)C)[C@]1(OC(C)=O)CO[C@@H]1C[C@@H]2O [Paclitaxel]
[13] = compound: NC1(C(=O)N[C@@H](CCO)c2ccc(Cl)cc2)CCN(c2nc[nH]c3nccc2-3)CC1 [AZD5363]
[14] = compound: T1, BSJ-03-123
[15] = compound: T2, Flavopiridol
[16] = compound: C1=CC2=C(C=CC(=C2)C=C3C(=O)NC(=NCC4=CC=CS4)S3)N=C1 [R0-3306]
[17] = compound: CO[C@@H](C)Cn1c(=O)n(C)c2cnc3ccc(-c4cncc(C(C)(C)O)c4)cc3c21
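For GR50, 72 h in this document: breast cancer and non-malignant breast epithelial cell lines, Deep Dye Drop or Dye Drop imaging, nine half-log doses, GR normalized to time-zero plates and DMSO-only controls.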

## HTERT_HME1
[1]; 0.0001 µM
  GR value: 0.956 GR
[1]; 0.0003162 µM
  GR value: 0.956 GR
[1]; 0.001 µM
  GR value: 0.939 GR
[1]; 0.003162 µM
  GR value: 1.03 GR
[1]; 0.01 µM
  GR value: 1.11 GR
[1]; 0.03162 µM
  GR value: 1.02 GR
[1]; 0.1 µM
  GR value: 0.889 GR
[1]; 0.3162 µM
  GR value: 0.179 GR
[1]; 1 µM
  GR value: -0.207 GR
[2]; 0.001 µM
  GR value: 1.05 GR
[2]; 0.003162 µM
  GR value: 0.987 GR
[2]; 0.01 µM
  GR value: 0.867 GR
[2]; 0.03162 µM
  GR value: 0.718 GR
[2]; 0.1 µM
  GR value: 0.588 GR
[2]; 0.3162 µM
  GR value: 0.433 GR
[2]; 1 µM
  GR value: 0.279 GR
[2]; 3.162 µM
  GR value: 0.136 GR
[2]; 10 µM
  GR value: 0.0346 GR
[3]; 0.001 µM
  GR value: 0.41 GR
[3]; 0.003162 µM
  GR value: 0.245 GR
[3]; 0.01 µM
  GR value: 0.16 GR
[3]; 0.03162 µM
  GR value: 0.177 GR
[3]; 0.1 µM
  GR value: 0.0758 GR
[3]; 0.3162 µM
  GR value: 0.0849 GR
[3]; 1 µM
  GR value: 0.0535 GR
[3]; 3.162 µM
  GR value: -0.036 GR
[3]; 10 µM
  GR value: -0.144 GR
[4]; 0.001 µM
  GR value: 0.864 GR
[4]; 0.003162 µM
  GR value: 0.776 GR
[4]; 0.01 µM
  GR value: 0.741 GR
[4]; 0.03162 µM
  GR value: 0.737 GR
[4]; 0.1 µM
  GR value: 0.623 GR
[4]; 0.3162 µM
  GR value: 0.568 GR
[4]; 1 µM
  GR value: 0.538 GR
[4]; 3.162 µM
  GR value: 0.467 GR
[4]; 10 µM
  GR value: 0.29 GR
[5]; 0.0001 µM
  GR value: 1.08 GR
[5]; 0.0003162 µM
  GR value: 1.07 GR
[5]; 0.001 µM
  GR value: 1.1 GR
[5]; 0.003162 µM
  GR value: 1.09 GR
[5]; 0.01 µM
  GR value: 0.754 GR
[5]; 0.03162 µM
  GR value: -0.268 GR
[5]; 0.1 µM
  GR value: -0.267 GR
[5]; 0.3162 µM
  GR value: -0.27 GR
[5]; 1 µM
  GR value: -0.28 GR
[6]; 0.001 µM
  GR value: 0.903 GR
[6]; 0.003162 µM
  GR value: 0.87 GR
[6]; 0.01 µM
  GR value: 0.78 GR
[6]; 0.03162 µM
  GR value: 0.635 GR
[6]; 0.1 µM
  GR value: 0.702 GR
[6]; 0.3162 µM
  GR value: 0.551 GR
[6]; 1 µM
  GR value: 0.386 GR
[6]; 3.162 µM
  GR value: 0.34 GR
[6]; 10 µM
  GR value: -0.153 GR
[7]; 0.0001 µM
  GR value: 1 GR
[7]; 0.0003162 µM
  GR value: 0.975 GR
[7]; 0.001 µM
  GR value: 0.942 GR
[7]; 0.003162 µM
  GR value: 0.876 GR
[7]; 0.01 µM
  GR value: 0.892 GR
[7]; 0.03162 µM
  GR value: 0.806 GR
[7]; 0.1 µM
  GR value: 0.536 GR
[7]; 0.3162 µM
  GR value: 0.155 GR
[7]; 1 µM
  GR value: -0.408 GR
[8]; 0.0001 µM
  GR value: 1.1 GR
[8]; 0.0003162 µM
  GR value: 0.944 GR
[8]; 0.001 µM
  GR value: 0.928 GR
[8]; 0.003162 µM
  GR value: 0.72 GR
[8]; 0.01 µM
  GR value: -0.0367 GR
[8]; 0.03162 µM
  GR value: -0.275 GR
[8]; 0.1 µM
  GR value: -0.295 GR
[8]; 0.3162 µM
  GR value: -0.319 GR
[8]; 1 µM
  GR value: -0.497 GR
[9]
  GR50, 72 h: 0.151 µM
[10]
  GR50, 72 h: 0.213 µM
[11]
  GR50, 72 h: 5.4 µM
[12]
  GR50, 72 h: 0.00317 µM
[13]
  GR50, 72 h: > 10 µM
[14]
  GR50, 72 h: 0.366 µM
[15]
  GR50, 72 h: 0.112 µM
[16]
  GR50, 72 h: 4.01 µM
[17]
  GR50, 72 h: 0.00274 µM
